Measured values as given in patent publication US12365706B2, “Macrocyclic peptides as potent inhibitors of K-RAS G12D mutant” (Merck Sharp & Dohme LLC, priority 2019, dated 2025).
Starred links: 1 amine or outer side, 2 acyl side, 3 side chain; linkers in the order of their positions; H or OH if unused. Positions of bridges follow the written chain, without caps; N, C: chain ends. Non-standard residues stand in square brackets, D forms with d. Residues, ends and D or L forms follow the SMILES beside them. Lys(N3) = [N-]=[N+]=NCCCC[C@H](N)C(=O)O; AEEA = NCCOCCOCC(=O)O; CH2 = C([*:1])[*:2]

Tests used:
[1] = system: AsPC-1 (homozygous K-Ras(G12D)) cells; assay: Cellular phospho-ERK assay in AsPC-1 cells; type: cell-based
Experimental: The cellular K-Ras inhibitory activity was evaluated by phosphorylation levels of ERK1/2 in AsPC-1 (homozygous K-Ras(G12D)) cells. AsPC-1 cells (ATCC® CRL-1682™) were cultured in T175 flask in growth medium (RPMI 1640 Medium, GlutaMAX™ Supplement, HEPES (Gibco 72400-047) supplemented with 10% fetal bovine serum (Hyclone SH30071.03) and 1× Penicillin/Streptomycin (Gibco 15140-122). The cells were harvested in seeding medium (RPMI 1640 Medium, no phenol red (Gibco 11835-030) supplemented with 10% fetal bovine serum (Hyclone SH30071.03), 25 mM HEPES (Gibco 15630-080) and 1× Penicillin/Streptomycin (Gibco 15140-122) after 5 min of 0.25% Trypsin-EDTA (Gibco 25200-056) digestion and were seeded in 384-well tissue culture treated plate (Greiner 781091) at a density of 15,000 cells/25 μL/well, and incubated at 37° C., 5% CO2 overnight. […] Phosphorylated ERK and total ERK levels were detected by Alpha SureFire Ultra Multiplex pERK kit (PerkinElmer MPSU-PTERK) using […] and 5 μL donor bead mix, both prepared following the manufacturer's protocol. […] Ratio of pERK vs total ERK in each well was used as the final readout. Dose response curves and EC50 were analyzed using a 4-parameter logistic equation in GraphPad Prism software (GraphPad, San Diego, CA).

K-Ras^G12D (GDP) [2] = target: T1, K-Ras^G12D (GDP) (Homo sapiens, UniProt P01116, G12D); assay: TR-FRET competitive binding assay, K-Ras(G12D) loaded with GDP
T1 construct: His-SUMO-tagged human K-Ras resides 1-169 was expressed; His-SUMO (N, cleaved yes); made in house; host or cells: E. coli Rosetta 2 (DE3)

K-Ras(G12D) = K-Ras(G12D) (Homo sapiens, UniProt P01116, G12D); conditions: cited from earlier work
[3] = Cell homogenate stability assay; type: in vitro ADME
Experimental: Stability of peptides towards intracellular proteases can be evaluated using HeLa cell homogenate. Suspended HeLa cells at 1 million cells/mL are sonicated in bursts with a probe sonicator on ice until uniformly homogenized. The homogenate thus prepared is frozen and stored at −20° C. until use. The peptides are incubated with the homogenate at 1 million cells/mL and loss of the peptide with increasing time is quantified using LC-MS/MS. Briefly, the test peptide is incubated with the homogenate at 1 μM in final volume of 50 μL at 37° C. At 0, 10, 30, 60 and 120 min, the reactions are quenched with 150 μL solution of 80% (v/v) Acetonitrile in Methanol containing a known internal standard peptide. The quenched samples are centrifuged at 4000 rpm for 5 min at 10° C. and supernatants are injected for bioanalysis by liquid chromatography combined with tandem-mass spectrometer. […] In addition, pre-boiled homogenate (prepared by incubating homogenate for 30 min in boiling water) is also used as a negative control for each test peptide. The ke is first-order rate constant describing the disappearance of parent drug in the incubation and may be obtained from regressing the initial slope (ke=−(slope)) of the natural log of the analyte area/internal standard area (designated as C at an appointed time t) in C versus time (min) profile. The half-life (t½) is calculated as: […]

[4] = system: A427 cells (which contain the K-Ras(G12D) mutation); conditions: dose-dependent manner; cited from earlier work
K-Ras(G12D) (GMPPNP) = target: T2, K-Ras(G12D) (GMPPNP) (Homo sapiens, UniProt P01116, G12D); assay: TR-FRET competitive binding assay, K-Ras(G12D) loaded with GMPPNP
T2 construct: His-SUMO-tagged human K-Ras resides 1-169 was expressed; His-SUMO (N, cleaved yes); made in house; host or cells: E. coli Rosetta 2 (DE3)

ERK1/2 = conditions: cited from earlier work
K-Ras^G12D (GDP) [5] = target: T1, K-Ras^G12D (GDP); assay: TR-FRET [K-Ras^G12D (GDP)] | EC50 (nM)

Compound	inhibition of ERK phosphorylation in an AsPC-1 cell line [1]	affinity for the GDP-loaded form of K-Ras (G12D) (K-Ras^G12D (GDP) [2])	mutant selectivity in SOS1-mediated GDP-GTP exchange (K-Ras(G12D); G12D against G12C and wild-type K-Ras)	inhibition of SOS1-mediated GDP-GTP exchange (K-Ras(G12D))	proteolytic degradation of the macrocycle in a cell homogenate stability study [3]	cell proliferation of A427 cells [4]	affinity for the GTP-loaded form of K-Ras (G12D) (K-Ras(G12D) (GMPPNP))	phosphorylation levels of ERK1/2 (ERK1/2)	EC50 (K-Ras^G12D (GDP) [5]) [nM]
CC[C@H](C)[C@@H]1NC(=O)[C@H](Cc2ccc(O)cc2)NC(=O)[C@H](CC(C)C)NC(=O)[C@@H]2CCCN2C(=O)[C@@H](NN[C@@H](CCCNC(=N)N)C(=O)N[C@@H](CCCNC(=N)N)C(=O)N[C@@H](CCCNC(=N)N)C(=O)N[C@@H](CCCNC(=N)N)C(=O)CC=O)CSSC[C@@H](C(=O)N[C@@H](CCCNC(=N)N)C(=O)N[C@@H](CCCNC(=N)N)C(=O)N[C@@H](CCCNC(=N)N)C(=O)N[C@@H](CCCNC(=N)N)C(N)=O)NC(=O)[C@H](C(C)C)NC(=O)[C@@H]2CCCN2C(=O)[C@H](CC(=O)O)NC(=O)[C@H](Cc2ccc(O)cc2)NC(=O)[C@H](CO)NC1=O [KRpep-2d]	absence of biological activity	high affinity	G12D-mutant selectivity against G12C and wild-type K-Ras variants	potently inhibited	rapid proteolytic degradation	suppressed cell proliferation	weaker affinity	reduced phosphorylation levels of ERK1/2	
CC[C@H](C)[C@@H]1NC(=O)[C@H](Cc2ccc(O)cc2)NC(=O)[C@H](CC(C)C)NC(=O)[C@@H]2CCCN2C(=O)[C@H](NC(=O)COCCOCCNC(=O)[C@H](CCCCN=[N+]=[N-])NC(=O)CNC(=O)[C@H](CCCCN)NC(=O)[C@H](CCCCN)NC(=O)[C@H](Cc2c[nH]c3ccccc23)NC(=O)[C@H](CCCCN)NC(=O)[C@H](CCSC)NC(=O)[C@H](CCCNC(=N)N)NC(=O)[C@H](CCCNC(=N)N)NC(=O)[C@H](CC(N)=O)NC(=O)[C@H](CCC(N)=O)NC(=O)[C@H](Cc2ccccc2)NC(=O)[C@H](Cc2c[nH]c3ccccc23)NC(=O)[C@@H](NC(=O)[C@H](CCCCN)NC(=O)[C@@H](NC(=O)[C@H](CCC(N)=O)NC(=O)[C@H](CCCNC(=N)N)NC(C)=O)[C@@H](C)CC)[C@@H](C)CC)CSCSC[C@@H](C(=O)N[C@@H](CCCNC(=N)N)C(N)=O)NC(=O)[C@H](C(C)C)NC(=O)[C@@H]2CCCN2C(=O)[C@H](CC(=O)O)NC(=O)[C@H](Cc2ccc(O)cc2)NC(=O)[C@H](CO)NC1=O [SEQ ID NO: 16] (Ac-RQIKIWFQNRRMKWKKG[Lys(N3)][AEEA][dC]PLYISYDPVCR-NH2; linker 20-30 via CH2)									400
